Molecules are shown by their SMILES.

Data on 39 compounds can be found in patent US7750145B2, “1-substituted-3-β-D-glucopyranosylated nitrogenous hetero-cyclic compounds and medicines containing the same” (Kissei Pharmaceutical Co., Ltd., priority 2004, dated 2010).

The test system of the experiment is SD rats. Kind of experiment: Assay for the effect on urinary glucose excretion. Conditions: overnight fasted male SD rats, oral 1 mg/kg, urine collected for 24 hours. The experiment is classed as in vivo, rat. The source says:
Assay for the Effect on Urinary Glucose Excretion
As experimental animals, overnight fasted SD rats (CHARLES RIVER LABORATORIES JAPAN. Inc., Crj:CD(SD)IGS, male, 7-8 weeks of age, 180-300 g) were used. The test compound was suspended with 0.5% methylcellulose solution and the suspension was used for administration. On the day before drug administration, the rats were transferred in metabolic cages and fasted from the evening. Throughout the study, the rats were given water ad libitum. The test compound was orally administered at the dose of 1 mg/kg and urine collection was performed for 24 hours after the compound administration. The rats were fed ad libitum from 4 hours after the compound administration. The volume of urine collected was measured and a part of urine was used as a sample for glucose concentration measurement. The samples were diluted as appropriate and the glucose concentrations were measured with Glucose CII-Test WAKO (Wako Pure Chemical Industries, Ltd.) and the amount of urinary glucose excretion per 200 g of body weight was calculated.
With `COc1ccc(Cn2cc([C@@H]3O[C@H](CO)[C@@H](O)[C@H](O)[C@H]3O)c3cc(C)cc(Cl)c32)cc1` [Example 105], the “Amount of urinary excretion of glucose in 24 hours” value (“Amount” below) was determined as 1693 mg/200 g body weight.

For `CC(C)Oc1ccc(Cn2cc([C@@H]3O[C@H](CO)[C@@H](O)[C@H](O)[C@H]3O)c3cccc(Cl)c32)cc1` [Example 147], the “Amount” value was determined as 295 mg/200 g body weight.

On to `COc1ccc(Cn2cc([C@@H]3O[C@H](CO)[C@@H](O)[C@H](O)[C@H]3O)c3cc(C)cc(Cl)c32)c(F)c1` [Example 106], for which the “Amount” value worked out at 1910 mg/200 g body weight.

Regarding `Cc1cc(F)c2c(c1)c([C@@H]1O[C@H](CO)[C@@H](O)[C@H](O)[C@H]1O)cn2Cc1ccc(CCO)cc1` [Example 99], the “Amount” value was 47 mg/200 g body weight.

On to `CCc1ccc(Cn2cc([C@@H]3O[C@H](CO)[C@@H](O)[C@H](O)[C@H]3O)c3cc(C)ccc32)cc1` [Example 7], for which the “Amount” value is recorded as 122 mg/200 g body weight.

On to `Cc1ccc(Cn2cc([C@@H]3O[C@H](CO)[C@@H](O)[C@H](O)[C@H]3O)c3cc(C)cc(Cl)c32)cc1` [Example 102], for which the “Amount” value is given as 933 mg/200 g body weight.

For the compound `COc1ccc(Cn2cc([C@@H]3O[C@H](CO)[C@@H](O)[C@H](O)[C@H]3O)c3cc(C)cc(F)c32)cc1` [Example 96], the “Amount” value amounted to 588 mg/200 g body weight.

As for `COc1ccc(Cn2cc([C@@H]3O[C@H](CO)[C@@H](O)[C@H](O)[C@H]3O)c3c(C)ccc(Cl)c32)c(F)c1` [Example 125], the “Amount” value is given as 50 mg/200 g body weight.

On to `CCc1ccc(Cn2cc([C@@H]3O[C@H](CO)[C@@H](O)[C@H](O)[C@H]3O)c3c(C)ccc(F)c32)cc1` [Example 116], for which the “Amount” value was determined as 24 mg/200 g body weight.

With `Cc1ccc(Cn2cc([C@@H]3O[C@H](CO)[C@@H](O)[C@H](O)[C@H]3O)c3cccc(Cl)c32)cc1` [Example 70], the “Amount” value amounted to 173 mg/200 g body weight.

On to `COc1ccc(Cn2cc([C@@H]3O[C@H](CO)[C@@H](O)[C@H](O)[C@H]3O)c3cc(C)cc(C)c32)cc1` [Example 114], for which the “Amount” value was determined as 520 mg/200 g body weight.

Consider `COc1ccc(Cn2cc([C@@H]3O[C@H](CO)[C@@H](O)[C@H](O)[C@H]3O)c3cccc(Cl)c32)c(F)c1` [Example 74], for which the “Amount” value worked out at 629 mg/200 g body weight.

On to `CC(C)Oc1ccc(Cn2cc([C@@H]3O[C@H](CO)[C@@H](O)[C@H](O)[C@H]3O)c3cccc(F)c32)cc1` [Example 145], for which the “Amount” value is 11 mg/200 g body weight.

Take `COc1ccc(Cn2cc([C@@H]3O[C@H](CO)[C@@H](O)[C@H](O)[C@H]3O)c3cc(C)cc(F)c32)c(F)c1` [Example 97]: the “Amount” value was determined as 507 mg/200 g body weight.

Turning to `CCc1ccc(Cn2cc([C@@H]3O[C@H](CO)[C@@H](O)[C@H](O)[C@H]3O)c3cc(C)cc(F)c32)cc1` [Example 94], the “Amount” value was determined as 945 mg/200 g body weight.

With `CCOc1ccc(Cn2cc([C@@H]3O[C@H](CO)[C@@H](O)[C@H](O)[C@H]3O)c3cccc(Cl)c32)cc1` [Example 146], the “Amount” value came out at 733 mg/200 g body weight.

Consider `OC[C@H]1O[C@@H](c2cn(Cc3ccc(OC(F)F)cc3)c3c(F)cccc23)[C@H](O)[C@@H](O)[C@@H]1O` [Example 66], for which the “Amount” value is listed as 24 mg/200 g body weight.

As to `COc1ccc(Cn2cc([C@@H]3O[C@H](CO)[C@@H](O)[C@H](O)[C@H]3O)c3cccc(F)c32)cc1` [Example 63], the “Amount” value is on record as 213 mg/200 g body weight.

With `CCc1ccc(Cn2cc([C@@H]3O[C@H](CO)[C@@H](O)[C@H](O)[C@H]3O)c3ccccc32)cc1` [Example 3], the “Amount” value was found to be 15 mg/200 g body weight.

`CCOc1ccc(Cn2cc([C@@H]3O[C@H](CO)[C@@H](O)[C@H](O)[C@H]3O)c3cc(C)cc(Cl)c32)cc1` [Example 158]: the “Amount” value is 1708 mg/200 g body weight.

In the case of `Cc1cc(Cl)c2c(c1)c([C@@H]1O[C@H](CO)[C@@H](O)[C@H](O)[C@H]1O)cn2Cc1ccc(OC(F)F)cc1` [Example 108], the “Amount” value was found to be 1229 mg/200 g body weight.

On to `Cc1cc(F)c2c(c1)c([C@@H]1O[C@H](CO)[C@@H](O)[C@H](O)[C@H]1O)cn2Cc1ccc(O)cc1` [Example 95], for which the “Amount” value came out at 40 mg/200 g body weight.

Turning to `CCOc1ccc(Cn2cc([C@@H]3O[C@H](CO)[C@@H](O)[C@H](O)[C@H]3O)c3cccc(F)c32)cc1` [Example 144], the “Amount” value worked out at 251 mg/200 g body weight.

For the compound `COc1ccc(Cn2cc([C@@H]3O[C@H](CO)[C@@H](O)[C@H](O)[C@H]3O)c3cccc(Cl)c32)cc1` [Example 73], the “Amount” value is recorded as 532 mg/200 g body weight.

For the compound `CCc1ccc(Cn2cc([C@@H]3O[C@H](CO)[C@@H](O)[C@H](O)[C@H]3O)c3cccc(Cl)c32)cc1` [Example 71], the “Amount” value worked out at 517 mg/200 g body weight.

`COc1ccc(Cn2cc([C@@H]3O[C@H](CO)[C@@H](O)[C@H](O)[C@H]3O)c3c(C)ccc(F)c32)cc1` [Example 118]: the “Amount” value was determined as 12 mg/200 g body weight.

As for `COc1ccc(Cn2cc([C@@H]3O[C@H](CO)[C@@H](O)[C@H](O)[C@H]3O)c3c(C)cccc32)cc1` [Example 2], the “Amount” value was determined as 27 mg/200 g body weight.

Turning to `COc1ccc(Cn2cc([C@@H]3O[C@H](CO)[C@@H](O)[C@H](O)[C@H]3O)c3c(C)cccc32)c(F)c1` [Example 28], the “Amount” value was 36 mg/200 g body weight.

Take `COc1ccc(Cn2cc([C@@H]3O[C@H](CO)[C@@H](O)[C@H](O)[C@H]3O)c3c(C)ccc(Cl)c32)cc1` [Example 124]: the “Amount” value is listed as 37 mg/200 g body weight.

As for `Cc1ccc2c(c1)c([C@@H]1O[C@H](CO)[C@@H](O)[C@H](O)[C@H]1O)cn2Cc1ccc(OC(C)C)cc1` [Example 11], the “Amount” value was found to be 33 mg/200 g body weight.

For `CCc1ccc(Cn2cc([C@@H]3O[C@H](CO)[C@@H](O)[C@H](O)[C@H]3O)c3cccc(F)c32)cc1` [Example 61], the “Amount” value is 98 mg/200 g body weight.

Consider `Cc1ccc(Cn2cc([C@@H]3O[C@H](CO)[C@@H](O)[C@H](O)[C@H]3O)c3cc(C)cc(F)c32)cc1` [Example 93], for which the “Amount” value is recorded as 275 mg/200 g body weight.

Turning to `OCCc1ccc(Cn2cc([C@@H]3O[C@H](CO)[C@@H](O)[C@H](O)[C@H]3O)c3cccc(F)c32)cc1` [Example 67], the “Amount” value came to 17 mg/200 g body weight.

`CCOc1ccc(Cn2cc([C@@H]3O[C@H](CO)[C@@H](O)[C@H](O)[C@H]3O)c3cc(C)cc(F)c32)cc1` [Example 156]: the “Amount” value is given as 784 mg/200 g body weight.

For the compound `Cc1cc(Cl)c2c(c1)c([C@@H]1O[C@H](CO)[C@@H](O)[C@H](O)[C@H]1O)cn2Cc1ccc(O)cc1` [Example 104], the “Amount” value is given as 349 mg/200 g body weight.

Turning to `OCCc1ccc(Cn2cc([C@@H]3O[C@H](CO)[C@@H](O)[C@H](O)[C@H]3O)c3cccc(Cl)c32)cc1` [Example 78], the “Amount” value was 54 mg/200 g body weight.

In the case of `CCOc1ccc(Cn2cc([C@@H]3O[C@H](CO)[C@@H](O)[C@H](O)[C@H]3O)c3cccc(Cl)c32)c(F)c1` [Example 75], the “Amount” value is given as 18 mg/200 g body weight.

With `CCc1ccc(Cn2cc([C@@H]3O[C@H](CO)[C@@H](O)[C@H](O)[C@H]3O)c3c(C)cccc32)cc1` [Example 1, 1-(4-Ethylbenzyl)-3-(β-D-glucopyranosyl)-4-methyl-1H-indole], the “Amount” value is on record as 182 mg/200 g body weight.

As to `CCc1ccc(Cn2cc([C@@H]3O[C@H](CO)[C@@H](O)[C@H](O)[C@H]3O)c3cccc(C)c32)cc1` [Example 5], the “Amount” value is 76 mg/200 g body weight.
